Data reported in patent US9216183B2, “Topical treatment for chemotherapy induced eyelash loss or hypotrichosis using prostamide F2 alpha agonists” (ALLERGAN, INC., priority 2002, dated 2015).
“Also recorded” adds a separate entry of the source.

What was measured:
Assay type in all cases: in vivo, human
[1] = Safety, overall study population (adverse events, ophthalmic examination, IOP, iris color)
Description: (§1) Safety measures included adverse events (AEs), ophthalmic examination (ophthalmoscopy [dilated], biomicroscopy, IOP, iris color assessment, and BCVA). AEs were monitored throughout the study by the investigator.
(§2) The 12-month data were the primary focus of the safety evaluation. Safety data were summarized with descriptive statistics (n, or frequency distributions [counts or percentages]). Biomicroscopic examinations and assessments of iris color, IOP, and BCVA were performed for each subject at screening/baseline and months 1, 2, 4, 6, 8, and 12 (or early termination prior to month 12); ophthalmoscopic examinations (dilated) were performed at screening/baseline and months 6 and 12 (or early termination prior to month 12). Two IOP measurements were taken for each eye at each visit; a third measurement was taken if the difference between the first 2 measurements was more than 2 mm Hg. The average or median IOP was determined in the event that 2 or 3 measurements were made, respectively. The IOP value analyzed at each visit was the average IOP of the subject's 2 eyes. Change and percent change from baseline in IOP were summarized by descriptive statistics. Between-group comparison will be performed using the 1-way analysis of variance.
Iris color assessments were performed using a 10-category subjective classification: blue, blue-gray, blue/gray-brown, gray, green, green-brown, hazel, brown, dark brown, and other.

[2] = system: eyelashes of subjects with chemotherapy-induced hypotrichosis; assay: Digital image analysis of upper eyelash length, thickness, darkness, chemotherapy-induced hypotrichosis; conditions: for Upper eyelash length, median percent change from baseline / Upper eyelash thickness, median percent change from baseline / Upper eyelash darkness, median percent change from baseline: chemotherapy-induced; for Upper eyelash darkness, median percent change from baseline / Mean change from baseline in eyelash darkness: negative = darker
Description: Efficacy was also assessed using more conservative criteria of 2-grade improvement in GEA. […] In addition to the investigator global assessment (GEA) and subjects own assessment (ESQ), the eyelash length, thickness/fullness and darkness were measures using digital image analysis. Secondary efficacy measures were based on digital image analysis (DIA) of eyelash characteristics: upper eyelash length (millimeters [mm]), thickness (mm^2), and darkness (intensity units). For darkness, a negative value in terms of change from baseline indicated darker eyelashes. Upper eyelash characteristics of length, thickness, and darkness were determined by a validated DIA method. The reliability and reproducibility of DIA have been verified within the acceptance criteria of 0.05% or less of mean coefficient of variance. The principal variables for the secondary efficacy assessments are: change from baseline in upper eyelash length (mm), average progressive eyelash thickness (mm^2), and eyelash darkness (intensity units) at months 4, 6, 10, and 12 or early termination. Descriptive statistics of the raw value at baseline and percent change from baseline at follow-up visits were summarized by treatment group for each principal measure of the 3 secondary variables of eyelash characteristics. Between-group comparisons were performed using a van Elteren test stratified by hypotrichosis etiology.

[3] = Safety (adverse events, IOP), chemotherapy-induced hypotrichosis subpopulation
Description: as §1, §2

[4] = overall population during bimatoprost treatment periods
[5] = subjects treated with bimatoprost, 10-category scale
[6] = postchemotherapy, Month 4, bimatoprost from day 1
[7] = postchemotherapy, Month 4, bimatoprost from day 1, listed as Bim/Bim
[8] = postchemotherapy, Month 6, bimatoprost from day 1
[9] = postchemotherapy, Month 6, bimatoprost from day 1, listed as Bim/Bim
[10] = postchemotherapy, Month 6, bimatoprost from day 1, listed as bimatoprost
[11] = postchemotherapy, Month 10, Bim/Bim
[12] = postchemotherapy, Month 10, Veh/Bim (bimatoprost since month 6)
[13] = postchemotherapy, Month 12, Bim/Bim
[14] = postchemotherapy, Month 12, Veh/Bim (bimatoprost since month 6)
[15] = postchemotherapy, Month 12, bimatoprost up to 12 months
[16] = chemotherapy-induced, 0 to 6 Months (N = 96)
[17] = chemotherapy-induced, 0 to 12 Months (N = 96)
[18] = chemotherapy-induced, 6 to 12 Months (N = 89)
[19] = postchemotherapy, first 6-month study period
[20] = postchemotherapy, first 6 months, N = 96

## CCNC(=O)CCC/C=C\C[C@@H]1[C@@H](/C=C/[C@@H](O)CCc2ccccc2)[C@H](O)C[C@@H]1O [Bim 0.03%, bimatoprost]
[1]; about 2 months after discontinuation of bimatoprost and initiation of vehicle, mild
  1-category change in iris hyperpigmentation reported as an AE: 1 subject
[1]; any time point, any group
  Greatest magnitude of mean change from baseline IOP: less than 2 mm Hg
[1]; bimatoprost 0.03% followed by vehicle (6-month treatment period)
  Subjects with biomicroscopy and ophthalmoscopy findings of at least a 2-severity grade increase from baseline: 5.0%
[1]; bimatoprost during both treatment periods (12-month treatment period)
  Subjects with biomicroscopy and ophthalmoscopy findings of at least a 2-severity grade increase from baseline: 4.2%
[1]; both subpopulations, 12-month study
  Drug-related serious adverse events: No drug-related serious adverse events were reported; also recorded: no serious AEs attributed to study treatment
[1]; [4]
  Conjunctival hyperaemia: 12.1%
  Erythema: 4.2%
  Eyelid pruritus: 4.7%
  Punctuate keratitis: 5.6%
[1]; [5]
  1- to 2-category iris color change from dark to light: 6 subjects
  1-category iris color change from light to dark: 5 subjects
[1]; vehicle followed by bimatoprost (6-month treatment period)
  Subjects with biomicroscopy and ophthalmoscopy findings of at least a 2-severity grade increase from baseline: 2.4%
[1]; whole study (study treatment), all in idiopathic subpopulation
  Subjects discontinued due to a treatment-related AE: 2.8%
[1]; whole study, mild/moderate
  Enophthalmos leading to treatment discontinuation: 1 subject
[2]; Month 4
  Upper eyelash length, median percent change from baseline: 28.50%
  Upper eyelash thickness, median percent change from baseline: 180.10%
  Upper eyelash darkness, median percent change from baseline: −14.40%
[2]; Month 4, listed as Bimatoprost
  Upper eyelash length, median percent change from baseline: 28.5 (94) %
  Upper eyelash thickness, median percent change from baseline: 180.1 (64) %
  Upper eyelash darkness, median percent change from baseline: −14.4 (65) %
[2]; Month 6, listed as Bimatoprost
  Upper eyelash length, median percent change from baseline: 37.8 (94) %
  Upper eyelash thickness, median percent change from baseline: 245.9 (64) %
[2]; Month 6, listed as bimatoprost
  Upper eyelash length, median percent change from baseline: 37.84%
  Upper eyelash thickness, median percent change from baseline: 245%
[2]; Month 6
  Upper eyelash darkness, median percent change from baseline: −16.3 (65) %
[2]; [6]
  Mean change from baseline in average progressive eyelash thickness: 0.67 mm^2
  Mean change from baseline in eyelash length: 1.48 mm
[2]; [7]
  Mean change from baseline in average progressive eyelash thickness: 0.67 ± 0.514 mm^2
  Mean change from baseline in eyelash length: 1.48 ± 1.391 mm
[2]; postchemotherapy, Month 4
  Mean change from baseline in eyelash darkness: −22.48
[2]; postchemotherapy, Month 6
  Eyelash length, mean percent increase from baseline: 48.08%
  Eyelash thickness, mean percent increase from baseline: 428%
  Mean change from baseline in eyelash darkness: −26.46
[2]; [8]
  Mean change from baseline in average progressive eyelash thickness: 0.83 mm^2
  Mean change from baseline in eyelash length: 1.99 mm
[2]; [9]
  Mean change from baseline in average progressive eyelash thickness: 0.83 ± 0.576 mm^2
  Mean change from baseline in eyelash length: 1.99 ± 1.557 mm
[2]; [10]
  Mean change from baseline in average progressive eyelash thickness: 0.83 mm^2
  Mean change from baseline in eyelash length: 1.99 mm
[2]; [11]
  Mean change from baseline in average progressive eyelash thickness: 0.88 ± 0.516 mm^2
  Mean change from baseline in eyelash length: 2.14 ± 1.455 mm
[2]; [12]
  Mean change from baseline in average progressive eyelash thickness: 0.63 ± 1.042 mm^2
  Mean change from baseline in eyelash length: 2.27 ± 1.439 mm
[2]; [13]
  Mean change from baseline in average progressive eyelash thickness: 0.85 ± 0.575 mm^2
  Mean change from baseline in eyelash length: 2.01 ± 1.504 mm
[2]; [14]
  Mean change from baseline in average progressive eyelash thickness: 0.58 ± 1.085 mm^2
  Mean change from baseline in eyelash length: 2.07 ± 1.442 mm
[2]; [15]
  Eyelash length, mean percent increase from baseline: 49.88%
  Eyelash length, median percent increase from baseline: 39.08%
  Eyelash thickness, mean percent increase from baseline: 478%
  Eyelash thickness, median percent increase from baseline: 212%
[3]; [16]
  Conjunctival hyperaemia: 15.6%
  Erythema of eyelid: 1.0%
  Eye pruritus: 5.2%
  Eyelids pruritus: 3.1%
  Punctate keratitis: 8.3%
  Skin hyperpigmentation: 3.1%
[3]; [17]
  Conjunctival hyperaemia: 16.7%
  Erythema of eyelid: 3.1%
  Eye pruritus: 6.3%
  Eyelids pruritus: 3.1%
  Punctate keratitis: 9.4%
  Skin hyperpigmentation: 5.2%
[3]; chemotherapy-induced, 2-month visit, IOP measured in mm Hg
  Mean change from baseline in IOP: −1.22
[3]; [18]
  Conjunctival hyperaemia: 1.1%
  Erythema of eyelid: 2.2%
  Eye pruritus: 1.1%
  Eyelids pruritus: 1.1%
  Punctate keratitis: 1.1%
  Skin hyperpigmentation: 2.2%
[3]; [19]
  Subjects reporting at least 1 adverse event: 57.3%
  Subjects reporting treatment-related adverse events: 27.1%
[3]; postchemotherapy, first 6 months
  Treatment-related adverse events reported as severe: None
[3]; [20]
  Treatment-related conjunctival hyperaemia: 12 subjects
  Treatment-related eye pruritus: 3 subjects
  Treatment-related eyelid irritation: 2 subjects
  Treatment-related eyelids pruritus: 3 subjects
  Treatment-related punctate keratitis: 7 subjects
  Treatment-related skin hyperpigmentation: 3 subjects
